Assay results from patent US20240024466A1, “LIPIDOID COMPOSITIONS AND METHODS OF USE THEREOF” (Trustees of Tufts College, priority 2020, published 2024).

Tests used:
B16F10 tumors = experiment: Immunocellular composition of the tumor microenvironment (flow cytometry); details: 48 h after the second injection
Description: To further evaluate the changes of the cellular composition after the treatment, the tumors were collected at 48 h after the second injection. The tumors were dissociated to single cells, stained with antibodies, and analyzed by the flowcytometry (FIG. 11).
After 48 h post the second injection, the tumors were collected and suspended to single cell solutions by 40 μm strainer (Thermo-Fisher). The cells were collected, washed with PBS, and stained with fluorescent antibodies of CD4 (APC-Cy7), CD8a (PE-Cy5), CD45 (PE), CD3e (FITC), F4/80 (APC), and CD11c (APC) in Flow Cytometry Staining Buffer (eBioscience). Fluorescent signal was measured using LSR-II flow cytometer (BD Biosciences). The data was analyzed by FlowJo-v10.

B16F10 tumor = experiment: Treatment of B16F10 tumor by in situ vaccination; assay type: in vivo, C57BL/6 mice; details: DOX day 0, second and third injection day 1 and 5, intratumoral
STING pathway [1] = experiment: In vivo ifnb1 and cxcl10 gene expression in tumors by RT PCR; set-up: species or system C57BL/6 mice; details: intratumoral, one day after DOX injection, 6 h post second injection
C57BL/6 mice = experiment: OVA prime-boost immunization with LNP formulations, antibody response by ELISA; details: rough library screening, OVA formulated with LNPs, injections at day 1 and day 14, FIG. 7B
dengue virus = experiment: nAb response to a protein-based dengue virus vaccine with TLR ligands; details: in vivo
Excerpt: The two TLR ligands individually will be produced and in combination into mRNA-LNPs and test if they enhance nAb response and reduce antibody-dependent enhancement. The mechanisms underlying the enhanced nAb response will be investigated for further adjuvant optimization.

draining lymph nodes = experiment: In vivo mRNA delivery, luciferase mRNA expression in draining lymph nodes; details: adjuvant incorporated into the LNP
STING pathway [2] = experiment: In vitro ifnb1 and cxcl10 gene expression by RT PCR; assay type: cell-based; details: RAW264.7, 150 nM cGAMP, 4 h
STING pathway [3] = experiment: as above; assay type: cell-based; details: DC2.4, 150 nM cGAMP, 4 h
BALB/c mice = details: s.c., IVIS 5 h after second injection

With `COc1cccc2c1C(=O)c1c(O)c3c(c(O)c1C2=O)C[C@@](O)(C(=O)CO)C[C@@H]3O[C@H]1C[C@H](N)[C@H](O)[C@H](C)O1` [DOX, doxorubicin] the “population of CD4+ and CD8+ T cells at tumor sites” value (B16F10 tumors) was “did not make significant changes”, the “tumor growth inhibition (tumor volumes)” value (B16F10 tumor) was “slight inhibition” and the “expression of ifnb1 and cxcl10 genes in B16F10 tumors” value (STING pathway [1]) was “did not changed significantly”.

lipopolysaccharide [LPS] was tested, and the IgG1 antibody response (C57BL/6 mice) was “extremely positive”.

With poly I:C the “nAb responses to a protein-based dengue virus vaccine” value (dengue virus) was “dramatically augment”.

Pam3CSK4 was tested, and the “nAb responses to a protein-based dengue virus vaccine” value (dengue virus) was “dramatically augment” and the “expression of luciferase mRNA in draining lymph nodes” value (draining lymph nodes) was “increased”.

`Nc1nc2c(ncn2[C@@H]2O[C@@H]3COP(=O)(O)O[C@H]4[C@@H](O)[C@H](n5cnc6c(N)ncnc65)O[C@@H]4COP(=O)(O)O[C@@H]2[C@@H]3O)c(=O)[nH]1` [cGAMP, 2′5′-3′5′ cyclic guanosine monophosphate-adenosine monophosphate] was tested, and the “population of CD4+ and CD8+ T cells at tumor sites” value (B16F10 tumors) was “increasement”, the “expression of ifnb1 gene compared with PBS-treated cells” value (STING pathway [2]) was “modest increase” and the “expression of ifnb1 and cxcl10 genes in B16F10 tumors” value (STING pathway [1]) was “modest increase”. The “expression of ifnb1 gene compared with PBS-treated cells” value (STING pathway [3]) was “modest increase”.

B1: ovalbumin (protein, UniProt P01012 2-386, looked up)
Ovalbumin: GSIGAASMEFCFDVFKELKVHHANENIFYCPIAIMSALAMVYLGAKDSTRTQINKVVRFDKLPGFGDSIEAQCGTSVNVHSSLRDILNQITKPNDVYSFSLASRLYAEERYPILPEYLQCVKELYRGGLEPINFQTAADQARELINSWVESQTNGIIRNVLQPSSVDSQTAMVLVNAIVFKGLWEKAFKDEDTQAMPFRVTEQESKPVQMMYQIGLFRVASMASEKMKILELPFASGTMSMLVLLPDEVSGLEQLESIINFEKLTEWTSSNVMEERKIKVYLPRMKMEEKYNLTSVLMAMGITDVFSSSANLSGISSAESLKISQAVHAAHAEINEAGREVVGSAEAGVDAASVSEEFRADHPFLFCIKHIATNAVLFFGRCVSP
With B1 the IgG1 antibody response (C57BL/6 mice) was “very low antibody response”.

B2: OVA^Alexa-647: Alexa Fluor 647-conjugated OVA, model antigen (protein, UniProt P01012 2-386, looked up)
Ovalbumin: GSIGAASMEFCFDVFKELKVHHANENIFYCPIAIMSALAMVYLGAKDSTRTQINKVVRFDKLPGFGDSIEAQCGTSVNVHSSLRDILNQITKPNDVYSFSLASRLYAEERYPILPEYLQCVKELYRGGLEPINFQTAADQARELINSWVESQTNGIIRNVLQPSSVDSQTAMVLVNAIVFKGLWEKAFKDEDTQAMPFRVTEQESKPVQMMYQIGLFRVASMASEKMKILELPFASGTMSMLVLLPDEVSGLEQLESIINFEKLTEWTSSNVMEERKIKVYLPRMKMEEKYNLTSVLMAMGITDVFSSSANLSGISSAESLKISQAVHAAHAEINEAGREVVGSAEAGVDAASVSEEFRADHPFLFCIKHIATNAVLFFGRCVSP
modifications: Alexa Fluor 647 label
For B2, the “distribution of OVA^Alexa-647 fluorescence signal” value (BALB/c mice) was “mainly distributed in bladder”.
